These are literature values, as cited in US10874605B2, “Extended release biodegradable ocular implants” (Allergan, Inc., priority 2004, dated 2020).

The conditions of this data set: efficacy in vivo.

`C[C@]12CCC(=O)C=C1CC[C@@H]1[C@@H]2[C@@H](O)C[C@@]2(C)[C@H]1CC[C@]2(O)C(=O)CO` [hydrocortisone]: the “dose equivalent to a 1 mg dose of dexamethasone” value is recorded as 25 mg and the “potency relative to dexamethasone” value is reported as “approximately twenty five fold less potent than dexamethasone”.
